The source of these data is patent publication US12421228B2 (Mirati Therapeutics, Inc., priority 2019, dated 2025).

Test [1] addresses purified human, His-tagged PRC2 complex (Homo sapiens (Human), UniProt O75530). Description: Hot Spot HMT assay, inhibition of PRC2 enzymatic activity. Format: biochemical. Conditions: 10 nM PRC2 complex, 0.05 mg/ml core histone H3, 1 μM 3H-SAM, 1 hr at 30° C.; read-out: IC50, Inhibition of PRC2-mediated Enzymatic Activity. How it is done: Ten-point dose-response curves for compounds of the present invention were determined using a Hot Spot HMT assay (Reaction Biology Corp; see Horiuchi et al., Assay Drug Dev Technol. (2013) 4: 227-236 doi: 10.1089/adt.2012.480). The assay uses purified human, His-tagged PRC2 complex, including N-terminal His-tagged EZH2 enzyme, N-terminal Flag-tagged embryonic ectoderm development protein (EED), N-terminal His-tagged suppressor of zeste 12 (SUZ12), N-terminal His-tagged AEBP2, and N-terminal His-tagged RbAp48. In this assay, the transfer of the tritiated methyl group from radiolabeled S-adenosyl methionine (SAM) to purified core histone protein by EZH2 is quantitated after filtration to determine the activity of the core PRC2 complex in the presence and absence of compound.
Briefly, compounds of the present invention were solubilized in DMSO and a series of 10, three-fold serial dilutions were made for each compound in 15% DMSO. The initial starting concentration for the serial dilutions of each compound was 1.0 μM. Control samples lacking compound, EZH2 enzyme or various reaction components also were prepared and processed in parallel with compound test samples. SAH (S-(5-adenosyl)-L-homocysteine) was used as a positive control for assay validation.
An aliquot of each serial dilution of test compound was added to deep 384 well plate using Acoustic Technology instrument (Echo 550, LabCyte) containing reaction buffer (50 mM Tris-HCl (pH 8)), 0.01% Brij35, 1 mM EDTA, 1 mM DTT, 1 mM PMSF and 1% DMSO), 10 nM purified PRC2 complex and 0.05 mg/ml core histone H3 in a 5 μl volume. The reaction was mixed gently and then pre-incubated for 20 min at 30° C. The enzymatic reaction was initiated by adding 1 μM S-Adenosyl-L-[methyl-^3H]methionine and incubated for 1 hr at 30° C. After 1 hr, the reaction product was detected using a filter binding method and the amount of tritiated H3 core histone was quantitated using a scintillation counter. The IC50 value for each compound was determined from each 10-point dose-response curve using GraphPad Prism software and the results for compounds of present invention, including compounds of Formula (I) and Formula (II) are shown in Table 6. Key: A=<100 nM; B=>100 nM−<250 nM; and C=>250 nM.

The test system of test [2] is Karpas 422 cells (EZH2 Y641N). The experiment in a line: Karpas 422 cell viability (Cell Titre Glo). Conditions: Homo sapiens, CTG viability, Day 4, Day 7 or Day 11 (time point not given), read-out: IC50 (nM), Inhibiting Proliferation of Cells Expressing an Activating Mutant Form of EZH2. Format: cell-based. How it is done:
Karpas 422 cell line is a human B cell non-Hodgkin's lymphoma cell line established from a patient having DLBCL. This EZH2 heterozygotic cell line expresses a mutant form of EZH2 enzyme (Y641N) that increases histone H3 methylation and this mutation has been implicated in the tumorgenesis of lymphomas, such as DLBCL.
Karpas 422 cells (PHE cat no., 06101702) were cultured in RPMI medium supplemented with 20% fetal bovine serum and 1% penicillin/1% streptomycin and plated at a density of 1000 cells/90 μl/well in 96 well white assay plates. A dose response curve for compounds of the present invention was determined by adding a 10 μl aliquot of stock solutions of varying concentrations of compounds to the same medium in each well, over a concentration range of 10 μM using 3-fold dilutions to a final concentration of 1.5 nM. The plates were incubated at 37° C. for predetermined time periods, Day 4, Day 7, or Day 11, and the viability of the cells was measured using a CTG assay kit (Cell Titre Glo; Promega cat. no G7573) on Day 4 and Day 7 in accordance with the manufacturer's instructions.
For the viability assay for the Day 11 plates, the plates were subjected to centrifugation at 1100 rpm for five minutes on Day 7 and the supernatant was removed by aspiration. The cells were resuspended in 90 μl aliquot of the appropriate growth medium lacking the compound followed by addition of 10 μl of a 10× stock of the same compound at the same concentration. The viability of the Day 11 cells was measured using the CTG assay kit described above in accordance with the manufacturer's instructions. The IC50 values for each compound at each predetermined time point were calculated using Graph pad PRISM software and the results are shown in Table 8. A=≤250 nM; B=[…]−≤500 nM; C=>500 nM and N.D.=not determined.

Test [3] has as its system PRC2-mediated histone H3 methylation in Pfeiffer cells (EZH2 A677G). Description: Tri-Methyl Histone H3 (Lys 27) sandwich ELISA in Pfeiffer cells. It counts as cell-based. Conditions: Homo sapiens, 96 hours incubation, H3K27me3 ELISA, read-out: IC50 (nM), Inhibition of EZH2-mediated Histone H3 Trimethylation. The text has this: The Pfeiffer cell line was established from a […] from a patient having metastatic diffuse large B-cell lymphoma (DLBCL). This cell line expresses a mutant form of the EZH2 enzyme (A677G) that results in enhanced EZH2 activity leading to increased methylation of histone H3 Lys27. Increased trimethylation of histone H3 Lys27 is believed to be implicated in tumorgenesis and poor clinical prognosis in lymphomas (McCabe et al., (2012) Nature 492:108-112).
Inhibition of PRC2-mediated histone H3 methylation by compounds of Formula (I) was measured by ELISA using a Tri-Methyl Histone H3 (Lys 27) Sandwich ELISA Kit (Cell Signaling Tech #7866C) in accordance with the manufacturer's instructions. Briefly, Pfeiffer cells were cultured in RPMI medium supplemented with 10% fetal bovine serum and 1% penicillin and 1% streptomycin in 96 well culture plates at 37° C. to a density of 8000 cells/90 μl/well and the cells were harvested. A series of 3-fold serial dilutions of each test compound of Formula (I) were prepared in RPMI medium and added to the cells at final concentrations ranging from […] to 0.15 nM. The plates were incubated at 37° C. for 96 hours.
After incubation, the cells were pelleted by centrifugation in a pre-cooled 4° C. rotor at 1,100 rpm for 10 min and the supernatant was removed by aspiration. The cell pellet was resuspended in 55 μl of Lysis Buffer (0.4M HCl) and incubated on ice with periodic shaking for 30 minutes. The lysed cells were subjected to centrifugation at 4,200 rpm for 10 min at 4° C. and the supernatant containing acid-soluble proteins was collected and the remainder discarded. The acid-soluble proteins were brought to a neutral pH by the addition of 20 μl of Neutralization Buffer (1 M Sodium phosphate, dibasic (pH 12.5), 2.5 mM DTT and 1 mM PMSF) and the neutralized lysates were analyzed by ELISA.
A 65 μl aliquot of each cell lysate was added to a well of a microwell strip, the microwells were sealed using tape and incubated either at 37° C. for two hours or at 4° C. overnight. After incubation, the tape was removed at the microwells were washed four times using 200 μl of 1× Wash Buffer. To each washed microwell, a 100 μl aliquot of an anti-trimethyl histone H3 Lys27 Detection Antibody solution was added and the microwells were incubated at 37° C. for one hour. The Detection Antibody solution was removed by aspiration and the wells were washed four times each using 200 μl of 1× Wash Buffer.
A 100 μl aliquot of an HRP-linked secondary antibody was added to each well, the wells were sealed with tape and incubated at 37° C. for 30 min. The HRP-linked secondary antibody solution was removed by aspiration and the wells were washed four times using 200 μl of 1× Wash Buffer. A 100 μl aliquot of a TMB substrate was added to each well, the wells were sealed with tape and incubated at 37° C. for 10 min or 25° C. for 30 min. The reaction was stopped by the addition of 100 μl aliquot of a STOP solution and the plate was shaken briefly. The degree of histone H3 trimethylation was determined using a spectrophotometric readout by measuring the absorbance at 450 nm and then calculating the amount of trimethylated histone H3. A=≤100 nM; B=>100 nM−≤500 nM; C=>500 nM and N.D.=not determined.

purified human, His-tagged PRC2 complex, sequence (Q15910 whole entry): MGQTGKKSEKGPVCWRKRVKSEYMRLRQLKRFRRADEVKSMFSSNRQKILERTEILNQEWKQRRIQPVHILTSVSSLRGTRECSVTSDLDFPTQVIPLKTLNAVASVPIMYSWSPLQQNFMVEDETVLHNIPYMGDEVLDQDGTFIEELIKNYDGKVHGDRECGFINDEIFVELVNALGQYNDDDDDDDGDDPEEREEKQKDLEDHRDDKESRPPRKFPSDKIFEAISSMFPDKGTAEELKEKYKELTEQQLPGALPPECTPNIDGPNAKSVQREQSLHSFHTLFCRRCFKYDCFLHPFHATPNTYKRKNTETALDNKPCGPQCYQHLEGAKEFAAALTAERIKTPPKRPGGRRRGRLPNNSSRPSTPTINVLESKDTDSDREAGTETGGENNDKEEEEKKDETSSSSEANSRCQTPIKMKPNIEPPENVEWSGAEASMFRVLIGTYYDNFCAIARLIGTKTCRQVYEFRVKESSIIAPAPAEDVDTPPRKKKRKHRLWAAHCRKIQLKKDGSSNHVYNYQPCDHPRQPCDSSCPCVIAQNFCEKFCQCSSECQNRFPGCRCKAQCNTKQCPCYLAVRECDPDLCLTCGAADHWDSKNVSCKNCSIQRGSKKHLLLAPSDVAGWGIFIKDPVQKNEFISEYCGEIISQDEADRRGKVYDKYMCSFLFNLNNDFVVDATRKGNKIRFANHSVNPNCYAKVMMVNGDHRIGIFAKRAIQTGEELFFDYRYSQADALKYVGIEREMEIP
purified human, His-tagged PRC2 complex, sequence (O75530 whole entry): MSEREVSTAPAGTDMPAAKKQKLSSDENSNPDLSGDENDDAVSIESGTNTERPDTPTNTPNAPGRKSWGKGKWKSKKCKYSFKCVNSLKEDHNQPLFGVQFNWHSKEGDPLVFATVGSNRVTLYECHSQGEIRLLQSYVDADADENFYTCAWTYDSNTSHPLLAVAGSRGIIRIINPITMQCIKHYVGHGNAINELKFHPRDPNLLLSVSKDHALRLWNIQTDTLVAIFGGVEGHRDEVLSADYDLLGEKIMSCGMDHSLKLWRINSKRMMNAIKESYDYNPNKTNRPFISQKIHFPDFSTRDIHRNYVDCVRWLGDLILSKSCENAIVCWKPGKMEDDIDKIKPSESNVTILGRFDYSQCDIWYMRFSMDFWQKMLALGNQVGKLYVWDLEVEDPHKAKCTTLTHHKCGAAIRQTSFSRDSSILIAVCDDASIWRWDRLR
purified human, His-tagged PRC2 complex, sequence (Q15022 whole entry partner): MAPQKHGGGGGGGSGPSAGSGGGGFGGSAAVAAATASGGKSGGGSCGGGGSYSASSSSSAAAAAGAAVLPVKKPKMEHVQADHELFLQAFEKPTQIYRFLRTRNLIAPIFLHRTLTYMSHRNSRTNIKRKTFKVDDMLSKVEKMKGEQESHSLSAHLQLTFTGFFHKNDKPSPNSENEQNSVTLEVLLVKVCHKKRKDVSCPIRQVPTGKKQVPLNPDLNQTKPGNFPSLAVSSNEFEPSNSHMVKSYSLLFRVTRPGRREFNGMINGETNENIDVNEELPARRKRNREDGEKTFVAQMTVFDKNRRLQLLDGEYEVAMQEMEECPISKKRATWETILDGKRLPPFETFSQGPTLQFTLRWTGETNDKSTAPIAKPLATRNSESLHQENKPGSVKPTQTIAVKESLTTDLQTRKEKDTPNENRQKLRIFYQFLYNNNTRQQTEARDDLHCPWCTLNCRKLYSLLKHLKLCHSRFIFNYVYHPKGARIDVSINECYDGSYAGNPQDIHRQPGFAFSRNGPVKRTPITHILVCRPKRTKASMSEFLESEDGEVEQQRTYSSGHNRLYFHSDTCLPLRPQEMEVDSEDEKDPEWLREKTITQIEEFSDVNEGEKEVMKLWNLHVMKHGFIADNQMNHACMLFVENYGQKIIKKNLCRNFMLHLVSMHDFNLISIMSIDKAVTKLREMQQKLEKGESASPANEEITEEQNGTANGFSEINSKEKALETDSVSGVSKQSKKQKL
purified human, His-tagged PRC2 complex, sequence (Q6ZN18 whole entry partner): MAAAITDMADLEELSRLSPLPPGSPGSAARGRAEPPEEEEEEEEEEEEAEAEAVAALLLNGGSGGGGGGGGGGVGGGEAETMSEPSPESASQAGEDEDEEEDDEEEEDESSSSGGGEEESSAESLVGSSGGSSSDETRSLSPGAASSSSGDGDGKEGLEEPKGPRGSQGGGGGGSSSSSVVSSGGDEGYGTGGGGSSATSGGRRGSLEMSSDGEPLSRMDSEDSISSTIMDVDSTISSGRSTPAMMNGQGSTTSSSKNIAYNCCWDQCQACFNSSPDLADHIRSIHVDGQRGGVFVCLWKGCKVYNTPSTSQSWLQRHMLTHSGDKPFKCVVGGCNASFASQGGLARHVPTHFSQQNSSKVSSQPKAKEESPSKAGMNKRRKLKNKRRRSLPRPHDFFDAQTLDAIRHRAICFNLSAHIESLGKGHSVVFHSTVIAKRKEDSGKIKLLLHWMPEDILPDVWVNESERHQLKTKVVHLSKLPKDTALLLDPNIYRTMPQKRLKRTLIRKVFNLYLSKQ
purified human, His-tagged PRC2 complex, sequence (Q09028 whole entry partner): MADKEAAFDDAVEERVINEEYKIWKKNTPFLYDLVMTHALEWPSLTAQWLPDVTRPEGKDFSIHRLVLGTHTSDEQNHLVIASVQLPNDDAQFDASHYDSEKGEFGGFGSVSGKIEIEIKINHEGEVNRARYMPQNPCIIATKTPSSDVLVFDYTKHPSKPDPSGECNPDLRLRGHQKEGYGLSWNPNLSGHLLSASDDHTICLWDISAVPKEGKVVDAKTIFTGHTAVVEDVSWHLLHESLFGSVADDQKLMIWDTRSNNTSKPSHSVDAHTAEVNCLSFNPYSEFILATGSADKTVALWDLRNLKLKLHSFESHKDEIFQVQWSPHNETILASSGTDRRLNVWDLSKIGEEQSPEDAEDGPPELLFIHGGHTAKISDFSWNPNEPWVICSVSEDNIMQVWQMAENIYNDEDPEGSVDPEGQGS

With `Cc1c(-c2cnc(NCc3c(F)ccc4c3CCO4)c3cnncc23)ccc(CN(C)C)c1F` [Example 5], the IC50 in test [1] was over 250 nM; in test [2], at most 250 nM; in test [3] it was at most 100 nM.
The like results for `Cc1cc(-c2cnc(NCc3c(F)ccc4c3CCO4)c3c[nH]c(=O)cc23)n(C)n1` [Example 35, 5-(1,3-dimethyl-1H-pyrazol-5-yl)-8-(((5-fluoro-2,3-dihydrobenzofuran-4-yl)methyl)amino)-2,7-naphthyridin-3(2H)-one] were, in that order, under 100 nM, at most 250 nM and at most 100 nM.
For `Cc1cc(-c2cnc(NCc3c(F)ccc4c3CCO4)c3cnncc23)n(C)n1` [Example 13] the same measures were under 100 nM, at most 250 nM and at most 100 nM.
The like results for `CCNCc1ccc(-c2cnc(NCc3c(F)ccc4c3CCO4)c3cnncc23)c(C)c1` [Example 20, 8-(4-((ethylamino)methyl)-2-methylphenyl)-N-((5-fluoro-2,3-dihydrobenzofuran-4-yl)methyl)pyrido[3,4-d]pyridazin-5-amine] were, in that order, under 100 nM, at most 250 nM and at most 100 nM.
`CN(C)C(=O)c1cc(-c2cnc(NCc3c(F)ccc4c3CCO4)c3cnncc23)n(C)n1` [Example 15, 5-(5-(((5-fluoro-2,3-dihydrobenzofuran-4-yl)methyl)amino)pyrido[3,4-d]pyridazin-8-yl)-N,N,1-trimethyl-1H-pyrazole-3-carboxamide]: the IC50 in test [1] is under 100 nM; in test [2], at most 250 nM; in test [3], at most 100 nM.
For `CNCc1ccc(-c2cnc(NCc3c(F)ccc4c3CCO4)c3cnncc23)cc1` [Example 21, N-((5-fluoro-2,3-dihydrobenzofuran-4-yl)methyl)-8-(4-((methylamino)methyl)phenyl)pyrido[3,4-d]pyridazin-5-amine] the same measures were 100 to 250 nM, at most 250 nM and 100 to 500 nM.
The like results for `Cc1cc(-c2cnc(NCc3c(F)ccc4c3CCO4)c3ncncc23)n(C)n1` [Example 59, 5-(1,3-dimethyl-1H-pyrazol-5-yl)-N-((5-fluoro-2,3-dihydrobenzofuran-4-yl)methyl)pyrido[3,4-d]pyrimidin-8-amine] were, in that order, over 250 nM, over 500 nM and over 500 nM.
The like results for `COc1nccc2c(NCc3c(F)ccc4c3CCO4)ncc(-c3cc(C)nn3C)c12` [Example 54, 4-(1,3-dimethyl-1H-pyrazol-5-yl)-N-((5-fluoro-2,3-dihydrobenzofuran-4-yl)methyl)-5-methoxy-2,6-naphthyridin-1-amine] were, in that order, over 250 nM, 250 to 500 nM and over 500 nM.
Turning to `Cc1cc(-c2cnc(NCc3c(F)ccc4c3CCO4)c3cccnc23)n(C)n1` [Example 51, 8-(1,3-dimethyl-1H-pyrazol-5-yl)-N-((5-fluoro-2,3-dihydrobenzofuran-4-yl)methyl)-1,6-naphthyridin-5-amine], the results for the IC50 in test [1], in test [2] and in test [3] were over 250 nM, at most 250 nM and 100 to 500 nM, respectively.
For `CN(C)S(=O)(=O)c1ccc(-c2cnc(NCc3c(F)ccc4c3CCO4)c3cnncc23)cc1` [Example 8] the same measures were under 100 nM, at most 250 nM and at most 100 nM.
On to `Cc1cc(-c2cnc(NCc3c(F)ccc4c3CCO4)c3nc[nH]c(=O)c23)n(C)n1` [Example 58, 5-(1,3-dimethyl-1H-pyrazol-5-yl)-8-(((5-fluoro-2,3-dihydrobenzofuran-4-yl)methyl)amino)pyrido[3,4-d]pyrimidin-4(3H)-one], for which the IC50 in test [1] was over 250 nM; in test [2], over 500 nM; in test [3], over 500 nM.
As for `CSc1ncc2c(NCc3c(F)ccc4c3CCO4)ncc(-c3cc(C)nn3C)c2n1` [Example 27, 8-(1,3-dimethyl-1H-pyrazol-5-yl)-N-((5-fluoro-2,3-dihydrobenzofuran-4-yl)methyl)-2-(methylthio)pyrido[4,3-d]pyrimidin-5-amine], the values for the IC50 in test [1], in test [2] and in test [3] were under 100 nM, at most 250 nM and 100 to 500 nM, respectively.
The like results for `Cc1cc(CN(C)C)ccc1-c1cnc(NCc2c(F)ccc3c2CCO3)c2cncnc12` [Example 24] were, in that order, under 100 nM, at most 250 nM and at most 100 nM.
For `Cc1cc(-c2cnc(NCc3c(F)ccc4c3CCO4)c3cnccc23)n(C)n1` [Example 29, 4-(1,3-dimethyl-1H-pyrazol-5-yl)-N-((5-fluoro-2,3-dihydrobenzofuran-4-yl)methyl)-2,7-naphthyridin-1-amine] the same measures were under 100 nM, 250 to 500 nM and 100 to 500 nM.
